This is an account of results in patent US10961539B2, “Promoter system inducing expression by 3-hydroxypropionic acid and method for biological production of 3-hydroxypropionic acid using same” (NOROO IC Co., Ltd., priority 2015, dated 2021).

Assay [1] relates to 3hpdh, 3hibdhIV, and mmsadh. As to the kind of experiment: Inducer specificity of gene expression (FIGS. 4 and 5). It counts as cell-based, Pseudomonas denitrificans. The conditions noted are these: for amplification of the genes 3hpdh, 3hibdhIV and mmsadh by the compound: FIGS. 4 and 5; for inducer of expression of mmsadh and 3hibdhIV: FIG. 4.
The subject of another assay is 3hpdh. As to the kind of experiment: RT-PCR relative mRNA level of 3-HP catabolic gene. The following applies: FIG. 5.

For `OCCCO` [1,3-propanediol], in assay [1], the “amplification of the genes 3hpdh, 3hibdhIV and mmsadh by the compound” value (“amplification of the genes 3hpdh” below) was “not induced”.

Regarding `CC(O)C(C)O` (centres unmarked) [2,3-butandiol], in assay [1], the “amplification of the genes 3hpdh” value is “not induced”.

On to `CC(O)CC(=O)O` (centres unmarked) [3-HB, 3-hydroxybutyrate], for which the “inducer of expression of 3hpdH” value with 3hpdh was “acts as an inducer”. Moreover, in assay [1], the “inducer of expression of mmsadh and 3hibdhIV” value is reported as “acts as an inducer”; the “amplification of the genes 3hpdh” value is reported as “amplified”.

As to `CC(CO)C(=O)O` (centres unmarked) [3HIB, 3-hydroxyisobutyrate], in the assay with 3hpdh, the “inducer of expression of 3hpdH” value is listed as “acts as an inducer”. Moreover, in assay [1], the “inducer of expression of mmsadh and 3hibdhIV” value is “acts as an inducer”; the “amplification of the genes 3hpdh” value is reported as “amplified”.

As to `CC(C)[C@H](N)C(=O)O` [L-valine], the “inducer of expression of 3hpdH” value with 3hpdh is given as “acts as an inducer”. Besides, in assay [1], the “inducer of expression of mmsadh and 3hibdhIV” value was “acts as an inducer”; the “amplification of the genes 3hpdh” value is recorded as “induced”.

For `CC(=O)O` [acetic acid], the “amplification of the genes 3hpdh” value in assay [1] is reported as “not induced”.

As to `CC(O)C(=O)O` (centres unmarked) [lactic acid], in assay [1], the “amplification of the genes 3hpdh” value was “not induced”.

Take `CCC(=O)O` [propionic acid]: the “amplification of the genes 3hpdh” value in assay [1] is on record as “not induced”.
